In ChEMBL document CHEMBL5625232, “Development of selective class I protein arginine methyltransferase inhibitors through fragment-based drug design approach” (Eur J Med Chem, 2023):
Values after ≈ are worked out from the molar mass of the structure shown.

Assays:
[1] = biological target: Histone-lysine N-methyltransferase, H3 lysine-79 specific (Homo sapiens) (UniProt Q8TEK3); assay: Displacement of 3H-SAM from DOT1L (unknown origin) at 30 uM incubated for 1 hr in presence of substrate by SPA assay relative to control
Chain of Histone-lysine N-methyltransferase, H3 lysine-79 specific (Homo sapiens) (Q8TEK3 whole entry, looked up): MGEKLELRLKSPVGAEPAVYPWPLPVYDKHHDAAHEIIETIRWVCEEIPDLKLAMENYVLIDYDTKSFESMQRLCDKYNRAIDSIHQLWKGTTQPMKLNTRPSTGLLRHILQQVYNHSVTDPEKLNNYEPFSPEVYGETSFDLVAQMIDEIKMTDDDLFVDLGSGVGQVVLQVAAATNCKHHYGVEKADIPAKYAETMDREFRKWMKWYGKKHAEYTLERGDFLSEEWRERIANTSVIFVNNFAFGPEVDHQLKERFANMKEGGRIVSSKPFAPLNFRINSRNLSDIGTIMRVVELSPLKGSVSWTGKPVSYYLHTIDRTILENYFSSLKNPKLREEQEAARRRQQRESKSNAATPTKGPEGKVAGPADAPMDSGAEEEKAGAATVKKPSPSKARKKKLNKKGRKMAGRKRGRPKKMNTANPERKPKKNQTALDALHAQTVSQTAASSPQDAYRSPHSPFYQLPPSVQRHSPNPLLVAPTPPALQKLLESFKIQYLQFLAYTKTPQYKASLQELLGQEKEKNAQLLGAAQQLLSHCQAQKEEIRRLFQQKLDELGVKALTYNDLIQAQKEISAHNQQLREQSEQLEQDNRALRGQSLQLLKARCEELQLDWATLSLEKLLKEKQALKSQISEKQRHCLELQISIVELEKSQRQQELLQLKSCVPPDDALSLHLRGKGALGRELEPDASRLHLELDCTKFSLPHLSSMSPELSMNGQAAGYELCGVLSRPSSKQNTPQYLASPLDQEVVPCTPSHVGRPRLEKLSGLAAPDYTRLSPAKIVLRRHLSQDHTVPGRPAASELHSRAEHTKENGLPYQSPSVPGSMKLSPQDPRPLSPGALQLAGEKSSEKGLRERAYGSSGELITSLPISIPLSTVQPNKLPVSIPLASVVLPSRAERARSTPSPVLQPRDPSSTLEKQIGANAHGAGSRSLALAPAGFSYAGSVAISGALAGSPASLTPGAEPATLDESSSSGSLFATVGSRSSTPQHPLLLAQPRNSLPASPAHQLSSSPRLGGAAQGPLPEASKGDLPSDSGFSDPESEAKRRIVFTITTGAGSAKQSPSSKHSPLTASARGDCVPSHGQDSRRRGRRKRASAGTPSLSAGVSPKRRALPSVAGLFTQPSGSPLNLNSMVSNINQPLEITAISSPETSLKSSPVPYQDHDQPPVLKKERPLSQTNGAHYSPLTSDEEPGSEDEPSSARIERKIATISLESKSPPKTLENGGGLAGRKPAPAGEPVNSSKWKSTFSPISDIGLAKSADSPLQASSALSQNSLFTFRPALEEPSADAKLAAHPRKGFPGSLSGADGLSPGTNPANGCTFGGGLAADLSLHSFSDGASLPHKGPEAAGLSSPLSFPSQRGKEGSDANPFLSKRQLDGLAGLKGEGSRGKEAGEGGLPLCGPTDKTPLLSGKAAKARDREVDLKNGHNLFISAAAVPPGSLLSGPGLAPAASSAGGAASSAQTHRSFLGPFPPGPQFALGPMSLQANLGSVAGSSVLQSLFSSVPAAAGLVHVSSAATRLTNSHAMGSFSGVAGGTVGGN

[2] = Metabolic stability in human liver microsomes assessed as half life preincubated for 10 mins followed by NADPH addition measured for 60 mins by LC-MS/MS analysis; assay type: ADME, Microsome; settings: time 70 min
[3] = Aqueous solubility of compound at pH 7.4 incubated for 24 hrs by HPLC-UV spectroscopy; assay type: physicochemical; settings: aqueous medium
[4] = biological target: T1, Histone-lysine N-methyltransferase SMYD3 (Homo sapiens) (UniProt Q9H7B4); assay: Displacement of 3H-SAM from SMYD3 (unknown origin) using biotinylated-MAP3K2 as substrate at 30 uM incubated for 45 mins by SPA assay relative to control
T1 sequence (whole entry): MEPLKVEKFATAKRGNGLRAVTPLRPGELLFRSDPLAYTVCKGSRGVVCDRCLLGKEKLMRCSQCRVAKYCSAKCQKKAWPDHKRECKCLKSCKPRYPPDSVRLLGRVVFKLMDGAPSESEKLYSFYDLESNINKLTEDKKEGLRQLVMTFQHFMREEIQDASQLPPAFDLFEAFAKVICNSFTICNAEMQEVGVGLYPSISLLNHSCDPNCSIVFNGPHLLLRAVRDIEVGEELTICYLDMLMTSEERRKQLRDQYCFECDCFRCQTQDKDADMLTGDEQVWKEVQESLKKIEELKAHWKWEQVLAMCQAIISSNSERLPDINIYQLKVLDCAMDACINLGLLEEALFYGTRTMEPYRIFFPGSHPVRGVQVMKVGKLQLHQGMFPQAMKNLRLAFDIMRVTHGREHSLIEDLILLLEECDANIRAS

[5] = Stability in human plasma assessed as compound remaining measured after 2 hrs by LC-MS/MS analysis; assay type: ADME, cell-free; settings: read-out: Stability
[6] = biological target: T2, Histone-lysine N-methyltransferase SUV39H1 (Homo sapiens) (UniProt O43463); assay: Displacement of 3H-SAM from SUV39H1 (unknown origin) using biotinylated-histone H3 peptide as substrate at 30 uM incubated for 45 mins by SPA assay relative to control
T2 sequence (whole entry): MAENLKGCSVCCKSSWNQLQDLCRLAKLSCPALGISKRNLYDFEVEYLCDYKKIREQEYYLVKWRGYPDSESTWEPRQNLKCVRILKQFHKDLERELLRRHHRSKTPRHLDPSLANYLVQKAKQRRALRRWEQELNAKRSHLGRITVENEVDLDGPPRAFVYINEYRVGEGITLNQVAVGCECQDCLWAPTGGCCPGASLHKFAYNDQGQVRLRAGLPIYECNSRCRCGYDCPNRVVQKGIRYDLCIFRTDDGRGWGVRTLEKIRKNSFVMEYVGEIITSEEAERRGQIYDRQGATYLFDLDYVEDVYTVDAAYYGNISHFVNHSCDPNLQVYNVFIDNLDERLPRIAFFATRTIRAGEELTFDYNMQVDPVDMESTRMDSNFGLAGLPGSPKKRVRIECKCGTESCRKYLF

[7] = biological target: T2, Histone-lysine N-methyltransferase SUV39H1 (Homo sapiens); assay: Displacement of 3H-SAM from SUV39H1 (unknown origin) using biotinylated-histone H3 peptide as substrate at 10 uM incubated for 45 mins by SPA assay relative to control
[8] = biological target: T3, Histone-arginine methyltransferase CARM1 (Homo sapiens, UniProt Q86X55); assay: Binding affinity to PRMT4 (unknown origin) assessed as dissociation constant by ITC analysis
T3 sequence (Q86X55 whole entry): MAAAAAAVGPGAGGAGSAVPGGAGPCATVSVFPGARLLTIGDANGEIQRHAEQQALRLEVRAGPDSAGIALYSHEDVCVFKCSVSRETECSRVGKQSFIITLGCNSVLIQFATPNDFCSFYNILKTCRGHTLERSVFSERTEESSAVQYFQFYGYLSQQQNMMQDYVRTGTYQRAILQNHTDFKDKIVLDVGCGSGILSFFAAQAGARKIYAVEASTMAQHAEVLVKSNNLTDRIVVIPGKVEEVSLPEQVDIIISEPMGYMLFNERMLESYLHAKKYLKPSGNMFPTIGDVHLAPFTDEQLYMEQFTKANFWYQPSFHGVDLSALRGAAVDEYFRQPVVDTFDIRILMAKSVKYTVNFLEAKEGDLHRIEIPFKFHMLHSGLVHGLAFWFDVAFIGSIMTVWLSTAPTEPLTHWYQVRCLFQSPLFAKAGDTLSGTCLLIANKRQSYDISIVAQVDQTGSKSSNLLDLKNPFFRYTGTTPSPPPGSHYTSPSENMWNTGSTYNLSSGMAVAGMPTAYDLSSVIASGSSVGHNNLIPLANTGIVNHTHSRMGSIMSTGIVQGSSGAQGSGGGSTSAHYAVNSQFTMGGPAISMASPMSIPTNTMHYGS

[9] = biological target: T1, Histone-lysine N-methyltransferase SMYD3 (Homo sapiens); assay: Displacement of 3H-SAM from SMYD3 (unknown origin) using biotinylated-MAP3K2 as substrate at 10 uM incubated for 45 mins by SPA assay relative to control

| SMILES | inhibition [1] | half-life [2] | solubility at 24 h [3] | inhibition [4] | remaining at 2 h [5] | inhibition [6] | inhibition [7] | Kd [8] | inhibition [9] |
| --- | --- | --- | --- | --- | --- | --- | --- | --- | --- |
| CNCCN1CCC(NC(=O)c2ccc3c(Nc4ccc(CN)cc4)ncnc3c2)C1 (racemic) | 11% | 10.9 min | 187 µg/mL (≈ 446 µM) | < 25% | 91.3% | < 25% | – | – | – |
| CNCCN1CC[C@@H](NC(=O)c2ccc3c(Nc4ccc(CN)cc4)ncnc3c2)C1 | – | 23 min | 210 µg/mL (≈ 501 µM) | – | 71.2% | – | < 25% | 25 µM | < 25% |
| CNCCN1CC[C@H](NC(=O)c2ccc3c(Nc4ccc(CN)cc4)ncnc3c2)C1 | – | – | – | – | – | – | < 25% | 20 µM | < 25% |
